Measurements taken from patent US5043450A, “8-alkoxyquinolonecarboxylic acid and salts thereof” (priority 1986, dated 1991).
Converted amounts (≈) assume the structure as drawn.

Columns and labels:
Type in all cases: cell-based
S. aureus Smith = test: Antibacterial spectra, MIC; conditions: Staphylococcus aureus
F. varium KYA 8501 = test: Antibacterial spectra, MIC; conditions: Fusobacterium varium, KYA8501; 10^6 cells/ml; Gram -; read-out: MIC
[1] = system: Salmonella enteritidis IID 604; test: Antibacterial spectra, MIC; conditions: Salmonella enterica
[2] = system: Klebsiella pneumoniae KY(GN)6445; test: Antibacterial spectra, MIC
E. coli ATCC 10536 = test: Antibacterial spectra, MIC; conditions: Escherichia coli, ATCC10536
K. pneumoniae 1-220S = test: Antibacterial spectra, MIC; conditions: Klebsiella pneumoniae, 1220S
[3] = system: Serratia marcescens IID 618; test: Antibacterial spectra, MIC; conditions: IID618
[4] = system: Staphylococcus aureus 209 P; test: Antibacterial spectra, MIC
P. mirabilis IID 994 = test: Antibacterial spectra, MIC; conditions: Proteus mirabilis, IID994
[5] = system: Clostridium difficile I-E; test: Antibacterial spectra, MIC; conditions: Clostridioides difficile
Bacilus subtilis PCI 219 = test: Antibacterial spectra, MIC; conditions: Bacillus subtilis, PCI219
P. aeruginosa IID 1210 = test: Antibacterial spectra, MIC; conditions: Pseudomonas aeruginosa, IID1210
[6] = system: Citrobacter freundii IID 976; test: Antibacterial spectra, MIC; conditions: IID976
[7] = system: S. aureus IID 670 (Terajima); test: Antibacterial spectra, MIC; conditions: Staphylococcus aureus, IID670
B. distasonis 8503 = test: Antibacterial spectra, MIC; conditions: Parabacteroides distasonis
S. pyogenes IID 692 = test: Antibacterial spectra, MIC; conditions: Streptococcus pyogenes, IID692
P. maltophilia GIFU 2491 = test: Antibacterial spectra, MIC; conditions: Stenotrophomonas maltophilia, GIFU2491
[8] = system: Fusobacterium mortiferum 4249; test: Antibacterial spectra, MIC
[9] = system: Bacteroides fragilis GM 7000; test: Antibacterial spectra, MIC; conditions: GM7000
Pst. micros UPI 5464-1 = test: Antibacterial spectra, MIC; conditions: Parvimonas micra, UPI54641
P. aeruginosa IFO 12689 = test: Antibacterial spectra, MIC; conditions: Pseudomonas aeruginosa, IFO12689
[10] = system: Pseudomonas aeruginosa V-1; test: Antibacterial spectra, MIC; conditions: V1
[11] = system: Yersinia enterocolitica IID 981; test: Antibacterial spectra, MIC; conditions: IID981
[12] = system: Enterobacter cloacae IID 977; test: Antibacterial spectra, MIC; conditions: IID977
[13] = system: Peptococcus magnus KY 017; test: Antibacterial spectra, MIC; conditions: Finegoldia magna, KY017
[14] = system: Alcaligenes faecalis 0114002; test: Antibacterial spectra, MIC
B. vulgatus KYA 29327 = test: Antibacterial spectra, MIC; conditions: Phocaeicola vulgatus, KYA29327
[15] = system: Veillonella parvula KYA 10790; test: Antibacterial spectra, MIC; conditions: KYA10790
[16] = system: Morganella morganii IID 602; test: Antibacterial spectra, MIC; conditions: IID602
C. ramosum = test: Antibacterial spectra, MIC; conditions: Thomasclavelia ramosa
[17] = system: Eubacterium lentum GAI 5242; test: Antibacterial spectra, MIC; conditions: Eggerthella lenta, GAI5242
[18] = system: B. thetaiotaomicron (0661); test: Antibacterial spectra, MIC; conditions: Bacteroides thetaiotaomicron
[19] = system: Peptostreptococcus anaerobius KYA 27337; test: Antibacterial spectra, MIC; conditions: KYA27337
[20] = system: Proteus vulgaris IFO 3167; test: Antibacterial spectra, MIC; conditions: IFO3167, 10^6 cells/ml, Gram -
Method: (§1) The antibacterial test was carried out according to the method designated by Japan Society of Chemotherapy.

E. coli ML 4707 = test: Antibacterial spectra, MIC; conditions: Escherichia coli, ML4707; 10^6 cells/ml; Gram -
Method: as §1

Shigella sonnei IID 969 = test: Antibacterial spectra, MIC; conditions: IID969, 10^6 cells/ml, Gram -
Method: as §1

[21] = system: Streptococcus pyogenes (S-8); test: Antibacterial spectra, MIC; conditions: 10^6 cells/ml, Gram +
Method: as §1

E. faecalis IID 682 = test: Antibacterial spectra, MIC; conditions: Enterococcus faecalis, IID682; 10^6 cells/ml; Gram +
Method: as §1

[22] = system: Escherichia coli NIHJ JC-2; test: Antibacterial spectra, MIC; conditions: NIHJJC2
B. fragilis 25285 = test: Antibacterial spectra, MIC; conditions: Bacteroides fragilis
S. pneumoniae IID 552 = test: Antibacterial spectra, MIC; conditions: Streptococcus pneumoniae, IID552
S. epidermidis IID 866 = test: Antibacterial spectra, MIC; conditions: Staphylococcus epidermidis, IID866
P. cepacia GIFU 518 = test: Antibacterial spectra, MIC; conditions: Burkholderia cepacia, GIFU518
[23] = system: Propionibacterium acens 11828; test: Antibacterial spectra, MIC; conditions: 10^6 cells/ml, Gram +, read-out: MIC
[24] = system: Acinetobacter anitratus IID 876; test: Antibacterial spectra, MIC; conditions: Acinetobacter calcoaceticus, IID876
F. necrophorum S-45 = test: Antibacterial spectra, MIC; conditions: Fusobacterium necrophorum, S45
B. fragilis 0558 = test: Antibacterial spectra, MIC; conditions: Bacteroides fragilis
C. perfringens KYA 13123 = test: microbe, parasite or virus in culture; conditions: Clostridium perfringens, KYA13123

COc1c(N2C[C@@H](N)[C@@H](C)C2)c(F)cc2c(=O)c(C(=O)O)cn(C3CC3)c12 (relative stereo) [Exp. 5, 7-(cis-3-amino-4-methyl-1-pyrrolidinyl)-1-cyclopropyl-6-fluoro-1,4-dihydro-8-methoxy-4-oxo-3-quinolinecarboxylic acid] gave an MIC (S. aureus Smith) of 0.05 µg/mL (≈ 0.133 µM), an MIC (F. varium KYA 8501) of 1.56 µg/mL (≈ 4.16 µM) and an MIC [1] of 0.05 µg/mL (≈ 0.133 µM). It also gave an MIC [2] of 0.025 µg/mL (≈ 0.0666 µM), an MIC (E. coli ATCC 10536) of 0.0125 µg/mL (≈ 0.0333 µM) and an MIC (K. pneumoniae 1-220S) of 0.05 µg/mL (≈ 0.133 µM). It also gave an MIC [3] of 0.05 µg/mL (≈ 0.133 µM), an MIC [4] of 0.025 µg/mL (≈ 0.0666 µM) and an MIC (P. mirabilis IID 994) of 0.05 µg/mL (≈ 0.133 µM). It also gave an MIC [5] of 0.39 µg/mL (≈ 1.04 µM), an MIC (Bacilus subtilis PCI 219) of 0.0125 µg/mL (≈ 0.0333 µM) and an MIC (P. aeruginosa IID 1210) of 0.78 µg/mL (≈ 2.08 µM). It also gave an MIC [6] of 0.05 µg/mL (≈ 0.133 µM), an MIC [7] of 0.05 µg/mL (≈ 0.133 µM) and an MIC (B. distasonis 8503) of 0.39 µg/mL (≈ 1.04 µM). For the same molecule, the MIC (S. pyogenes IID 692) was 0.1 µg/mL (≈ 0.266 µM), the MIC (P. maltophilia GIFU 2491) was 0.1 µg/mL (≈ 0.266 µM) and the MIC [8] was 0.2 µg/mL (≈ 0.533 µM). The MIC [9] was 0.1 µg/mL (≈ 0.266 µM), the MIC (Pst. micros UPI 5464-1) was 0.2 µg/mL (≈ 0.533 µM) and the MIC (P. aeruginosa IFO 12689) was 0.78 µg/mL (≈ 2.08 µM). For the same molecule, the MIC [10] was 0.78 µg/mL (≈ 2.08 µM), the MIC [11] was 0.05 µg/mL (≈ 0.133 µM) and the MIC [12] was 0.05 µg/mL (≈ 0.133 µM). For the same molecule, the MIC [13] was 0.1 µg/mL (≈ 0.266 µM), the MIC [14] was 0.2 µg/mL (≈ 0.533 µM) and the MIC (B. vulgatus KYA 29327) was 0.2 µg/mL (≈ 0.533 µM). The MIC [15] was 0.2 µg/mL (≈ 0.533 µM), the MIC [16] was 0.05 µg/mL (≈ 0.133 µM) and the MIC (C. ramosum) was 0.78 µg/mL (≈ 2.08 µM). The MIC [17] was ≤ 0.05 µg/mL, the MIC [18] was 0.1 µg/mL (≈ 0.266 µM) and the MIC [19] was 0.2 µg/mL (≈ 0.533 µM). For the same molecule, the MIC [20] was 0.025 µg/mL (≈ 0.0666 µM), the MIC (E. coli ML 4707) was 0.025 µg/mL (≈ 0.0666 µM) and the MIC (Shigella sonnei IID 969) was 0.025 µg/mL (≈ 0.0666 µM). It also gave an MIC [21] of 0.1 µg/mL, an MIC (E. faecalis IID 682) of 0.1 µg/mL and an MIC [22] of 0.0125 µg/mL (≈ 0.0333 µM). For the same molecule, the MIC (B. fragilis 25285) was 0.1 µg/mL (≈ 0.266 µM), the MIC (S. pneumoniae IID 552) was 0.1 µg/mL (≈ 0.266 µM) and the MIC (S. epidermidis IID 866) was 0.1 µg/mL (≈ 0.266 µM). For the same molecule, the MIC (P. cepacia GIFU 518) was 0.78 µg/mL (≈ 2.08 µM), the MIC [23] was 1.56 µg/mL (≈ 4.16 µM) and the MIC [24] was 0.05 µg/mL (≈ 0.133 µM). The MIC (F. necrophorum S-45) was 0.2 µg/mL (≈ 0.533 µM) and the MIC (B. fragilis 0558) was 0.1 µg/mL (≈ 0.266 µM).

In the case of COc1c(N2CCC(N)C2)c(F)cc2c(=O)c(C(=O)O)cn(C3CC3)c12 (centres unmarked) [Exp. 4, 7-(3-amino-1-pyrrolidinyl)-1-cyclopropyl-6-fluoro-1,4-dihydro-8-methoxy-4-oxo-3-quinolinecarboxylic acid], the MIC (S. aureus Smith) is reported as 0.05 µg/mL (≈ 0.138 µM), the MIC (F. varium KYA 8501) is reported as 1.56 µg/mL (≈ 4.32 µM) and the MIC [1] is reported as 0.05 µg/mL (≈ 0.138 µM). It also gave an MIC [2] of 0.05 µg/mL (≈ 0.138 µM), an MIC (E. coli ATCC 10536) of 0.025 µg/mL (≈ 0.0692 µM) and an MIC (K. pneumoniae 1-220S) of 0.05 µg/mL (≈ 0.138 µM). The MIC [3] was 0.05 µg/mL (≈ 0.138 µM), the MIC [4] was 0.05 µg/mL (≈ 0.138 µM) and the MIC (P. mirabilis IID 994) was 0.05 µg/mL (≈ 0.138 µM). The MIC [5] was 0.39 µg/mL (≈ 1.08 µM), the MIC (Bacilus subtilis PCI 219) was 0.025 µg/mL (≈ 0.0692 µM) and the MIC (P. aeruginosa IID 1210) was 0.39 µg/mL (≈ 1.08 µM). It also gave an MIC [6] of 0.05 µg/mL (≈ 0.138 µM), an MIC [7] of 0.05 µg/mL (≈ 0.138 µM) and an MIC (B. distasonis 8503) of 0.78 µg/mL (≈ 2.16 µM). It also gave an MIC (S. pyogenes IID 692) of 0.1 µg/mL (≈ 0.277 µM), an MIC (P. maltophilia GIFU 2491) of 0.1 µg/mL (≈ 0.277 µM) and an MIC [8] of 0.2 µg/mL (≈ 0.553 µM). It also gave an MIC [9] of 0.2 µg/mL (≈ 0.553 µM), an MIC (Pst. micros UPI 5464-1) of 0.2 µg/mL (≈ 0.553 µM) and an MIC (P. aeruginosa IFO 12689) of 0.39 µg/mL (≈ 1.08 µM). For the same molecule, the MIC [10] was 0.39 µg/mL (≈ 1.08 µM), the MIC [11] was 0.05 µg/mL (≈ 0.138 µM) and the MIC [12] was 0.05 µg/mL (≈ 0.138 µM). The MIC [13] was 0.1 µg/mL (≈ 0.277 µM), the MIC [14] was 0.39 µg/mL (≈ 1.08 µM) and the MIC (B. vulgatus KYA 29327) was 0.39 µg/mL (≈ 1.08 µM). It also gave an MIC [15] of 0.2 µg/mL (≈ 0.553 µM), an MIC [16] of 0.05 µg/mL (≈ 0.138 µM) and an MIC (C. ramosum) of 0.78 µg/mL (≈ 2.16 µM). The MIC [17] was 0.1 µg/mL (≈ 0.277 µM), the MIC [18] was 0.2 µg/mL (≈ 0.553 µM) and the MIC [19] was 0.2 µg/mL (≈ 0.553 µM). The MIC (C. perfringens KYA 13123) was 0.2 µg/mL (≈ 0.553 µM), the MIC [20] was 0.025 µg/mL (≈ 0.0692 µM) and the MIC (E. coli ML 4707) was 0.025 µg/mL (≈ 0.0692 µM). For the same molecule, the MIC (Shigella sonnei IID 969) was 0.025 µg/mL (≈ 0.0692 µM), the MIC [21] was 0.05 µg/mL and the MIC (E. faecalis IID 682) was 0.1 µg/mL. The MIC [22] was 0.0125 µg/mL (≈ 0.0346 µM), the MIC (B. fragilis 25285) was 0.1 µg/mL (≈ 0.277 µM) and the MIC (S. pneumoniae IID 552) was 0.1 µg/mL (≈ 0.277 µM). It also gave an MIC (S. epidermidis IID 866) of 0.1 µg/mL (≈ 0.277 µM), an MIC (P. cepacia GIFU 518) of 0.39 µg/mL (≈ 1.08 µM) and an MIC [23] of 1.56 µg/mL (≈ 4.32 µM). The MIC [24] was 0.05 µg/mL (≈ 0.138 µM), the MIC (F. necrophorum S-45) was 0.2 µg/mL (≈ 0.553 µM) and the MIC (B. fragilis 0558) was 0.1 µg/mL (≈ 0.277 µM).
